{"source": "patent US7244712B2", "about": "“Aminoglycoside antibiotics and methods of using same” (priority 2004, dated 2007)", "key": {"[1]": {"tested_on": "E. coli S30 extract, containing 70S ribosomes", "assay": "In vitro protein translation (CAT mRNA, 35S methionine incorporation)", "format": "biochemical", "settings": "quantitation of gel bands, read-out: IC50, concentration producing 50% inhibition of translation", "description": "Protein translation was performed from chloramphenicol acetyl transferase (CAT) mRNA. […] A commercial E. coli ribosomal suspension was supplemented with an E. coli extract containing the required elements for translation. These include translation factors, tRNAs, and aminoacyl tRNA synthases. Plasmid, T7 RNA polymerase and amino acids were added to the reaction mixture, and both transcription and translation steps were performed in the same vial. The effects of the aminoglycosides on the translation process were evaluated by measuring the incorporation of ^35S methionine in the translated chloramphenicol acetyl transferase protein.\nIn vitro translation was performed by using PROTEINscript™-PRO (Ambion) kit. […] Reaction mixtures contained appropriate concentrations of antibiotic (neomycin B, D- and L-neamine). The protein was translated from CAT mRNA, transcribed from control DNA template containing CAT gene under control of the T7 promotor. The product, ˜25 kDa chloramphenicol acetyl transferase, was labeled during translation with 1 μCi ^35S methionine (New England Nuclear) per reaction (no cold methionine was added).\nFollowing the translation, the samples were analyzed by electrophoresis on 4-20% SDS mini-gels (Invitrogen) for 1.5 h at 120V. Gels were fixed with 40% methanol/10% acetic acid and exposed to Molecular Dynamics phosphoimager plates, which were read on a Personal FX phosphoimager (Bio-Rad) and quantitated using QuantityOne™ software."}, "E. coli (ATCC 25922) [2]": {"tested_on": "E. coli (ATCC 25922)", "assay": "MIC, wild type E. coli", "format": "cell-based", "settings": "growth inhibition greater than 90%", "method": "(§1) Minimal inhibitory concentrations (MIC) were measured according to the published method (Greenberg, W. A., Priestley, E. S., Sears, P. S., Alper, P. B., Rosenbohm, C., Hendrix, M., Hung, S.-C., & Wong, C.-H. (1999) J. Am. Chem. Soc. 121, 6527-6541). E. coli (ATCC 25922) (both wild type and pMM-transformed) and P. aeruginosa (ATCC 27853) were grown in medium 2 to an optical density OD 600 of 0.6-0.8. The inoculi were diluted to OD 600 ˜0.1 in medium 2 and 1 mL of the culture was placed in 13 mL test tubes. The desired concentrations of antibiotic were added from stock solutions. […] The absorbance at 600 nm of each sample was read and MIC was taken as the lowest antibiotic concentration inhibiting bacterial growth by greater than 90%."}, "E. coli (ATCC 25922) [3]": {"tested_on": "E. coli (ATCC 25922)", "assay": "Bactericidal activity (bactericide index)", "format": "cell-based", "settings": "3 h incubation, FIG. 8", "method": "The bactericidal activity of each antibiotic was investigated at concentrations of 0.5-4×MIC in medium E. coli (ATCC 25922) inoculum was added to 0.5 mL medium 2 to OD 600 ˜0.1 together with different antibiotic concentrations. The samples were incubated at 37° C. for 3 hrs, and the bacteria were collected by centrifugation. The bacterial pellets were washed with 0.5 mL of medium 2 and were plated on 1.5% medium 2 agar in 100 mm Petri dishes. The plates were incubated for 1-2 days at 37° C. and mean log 10 change in viable count was calculated and plotted vs drug concentration."}, "[4]": {"tested_on": "P. aeruginosa (ATCC 27853)", "assay": "MIC, P. aeruginosa", "format": "cell-based", "settings": "growth inhibition greater than 90%", "method": "as §1"}, "[5]": {"tested_on": "E. coli (ATCC 25922) transformed with pMM plasmid bearing APH(3')IIa", "assay": "MIC, kanamycin/neomycin resistant E. coli", "format": "cell-based", "settings": "growth inhibition greater than 90%", "method": "(§2) E. coli (ATCC 25922) and P. aeruginosa (ATCC 27853) (BD Bioscience) were inoculated in 3 mL of the medium 2 (U.S. Pharmacopia), containing 6 g peptone, 3 g yeast extract and 1.5 g beef extract per 1 L, pH 6.6, and were grown in a shaker for 6 h at 37° C. until an OD 560=0.6-0.8 was reached.\nas §1"}, "70S ribosome": {"target": "70S ribosome", "assay": "Fluorescence anisotropy binding to 70S ribosomes", "settings": "competition with CRP, E. coli ribosomes; read-out: Dissociation constant (KD) with 70S ribosome", "method": "(§3) After establishing the lack of stereospecificity in the binding of aminoglycosides to the A-site RNA constructs (FIG. 9A-C) where the binding affinity, KD, is about 0.1 μM to about 100 μM, the stereospecificity of aminoglycoside binding to intact ribosomes was determined. Both yeast and E. coli ribosomes were prepared and aminoglycoside binding was measured using fluorescence anisotropy methods. For example, fluorescence anisotropy methods recited in Wang, Y., and Rando, R. R. Chem. Biol. (1995) 2, 281-290; and Wang, Y., Hamasaki, K., and Rando, R. R. Biochemistry (1997) 36,768-779. CRP was used as the binding probe. […] Binding data reported herein for aminoglycoside compounds with eukaryotic yeast ribosomes are similar to binding data for said aminoglycoside compounds with ribosoimes in bacteria and with eukaryotic A-site rRNA constructs.\n(§4) 5-Carboxytetramethylrhodamine-labeled paromomycin (CRP) and tobramycin (CRT) concentrations were determined spectroscopically at 550 nm using a molar extinction coefficient of 6.00×10 4 M −1 cm −1. Fluorescence anisotropy measurements were performed on a Perkin-Elmer LS-50B luminescence spectrometer equipped with a thermostat accurate to ±0.1° C. as indicated previously (Wang, Y., Hamasaki, K., & Rando, R. R. (1997) Biochemistry 36, 768-779). The tracer solution was excited at 550 nm and monitored at 580 nm. The integration time was 5 s. For every point, 6 measurements were taken, and their average values were used for calculation. Measurements were carried out in a buffer solution containing 150 mM NaCl, 5 mM KCl, 1 mM CaCl2, 1 mM MgCl2, and 20 mM HEPES (pH 7.5). Prior to measurements, RNA constructs were renatured by incubating in binding buffer {150 mM NaCl, 5 mM KCl, 1 mM CaCl2, 1 mM MgCl2, and 20 mM HEPES (pH 7.5)} for 3 minutes at 90° C. followed by slow cooling to 25° C.\n(§5) Equation 1 was used for the determination of the dissociation constant (Kd) for the interactions between RNA or ribosome and CRP. A=A0+DA{(RNA)0+(CRP)0+Kd−({(RNA)0+(CRP)0+Kd}^2−4(RNA)0(CRP)0)½}/2 where A and A0 are the fluorescence anisotropy of CRP in the presence and absence of RNA, respectively, and DA is the difference between the fluorescence anisotropy of CRP in the presence of an extrapolated infinite concentration of RNA minus the fluorescence anisotropy in the absence of RNA. (RNA)0 and (CRP)0 are the initial concentrations of RNA and CRP, respectively.\n(§6) Equation 2 is used for the calculation of the KD values in the competition binding assay. (aminoglycoside)0={KD(A−−A)/Kd(A−A0)+1}{(RNA)0−Kd(A−A0)/(A−−A)−(CRP)0(A−A0)/(A−−A)} where KD is the dissociation constant between the RNA and the aminoglycosides; (aminoglycoside)0 is the initial concentration of the aminoglycosides; AL is anisotropy of completely bound tracer. Both Kd and KD were determined by non-linear curve fitting using the equations described above, and are presented as mean values of three independent measurements.\nThe purification of E. coli (E600) 70S ribosomes was carried out according to the published procedure (Lazaro, E., van den Broek, L. A. G. M., Felix, A. S., Ottenheijm, H. C. J., Ballesta, J. P. G. (1991) Biochemistry 30, 9642-9648). E. coli MRE600 were grown for 12 h in 6L of LB medium (10 g trypton, 5 g yeast extract, 5 g NaCl per 1 L, pH 7.0) at 37° C. Crude ribosomes were precipitated from clarified supernatant by 4 h centrifugation at 25,000 rpm in Beckman SW 28 rotor at 4° C. The ribosome pellets were collected in 5 mL of buffer BR1, containing 10 mM HEPES, pH 7.5, 500 mM ammonium acetate, 100 mM magnesium chloride and 2.5 mM DTT. The ribosome suspension was centrifuged for 20 min at 15000 rpm to be clarified. The clarified sample was loaded over two layers of 20% and 40% sucrose in buffer BR1 and centrifuged for 18 hr at 19000 rpm in Beckman SW28 rotor at 4° C. […]"}, "80S ribosome": {"target": "80S ribosome", "assay": "Fluorescence anisotropy binding to 80S ribosomes", "design": "species or system yeast (S. cerevisiae)", "settings": "competition with CRP, yeast ribosomes; read-out: Dissociation constant (KD) with 80S ribosome", "method": "as §3, §4, §5, §6\nThe purification of yeast 80S ribosomes from S. cerevisiae strain YSB 758 was carried out according to the published procedure (Verschoor, A., Warner, J. R., Srivastava, S., Grassucci, R. A., & Frank, J. (1997) Nucl. Acid Res. 26, 655-661). S. cerevisiea YSB 758 were grown for 12 hrs at 30° C. in 2L of YPD medium, containing: 20 g bacto peptone, 20 g glucose, 10 g yeast extract and 0.15 g tryptophan per 1 L, pH 7.0. The cells were lysed by 5-10 cycles of 1 min vigorous shaking with glass beads with a vortex, followed by cooling on ice. Clarified cell extract (about 9 mL total, used in 6 portions in 1.5 mL aliqouts) was carefully loaded on top of 2 mL of a cushion, composed of 10% sucrose and 5% ammonium sulfate dissolved in buffer YR1 (20 mM HEPES pH=7.4, 16 mM magnesium chloride, 100 mM potassium chloride, 5 mM DTT, and 0.5 mM EDTA). The ribosomes were collected by centrifugation in Beckman TL100.3 rotor at 75000 rpm for 3 h. The supernatants were carefully discarded and ribosomes were collected in buffer YR1. […]"}, "[6]": {"tested_on": "E. coli (ATCC 25922) transformed with the plasmid pMM, bearing the APH(3')IIa gene", "assay": "Antibiotic activity disk assay, kanamycin/neomycin resistant E. coli", "format": "cell-based", "settings": "FIG. 7B", "method": "as §2\nFor the antibiotic disk assay, […] of each bacterial inoculum was mixed with 10 mL of melted agar (1.5% medium 2 agar, BD Bioscience) at 50-55° C. and poured onto 100 mm Petri dishes. Sterile Whatmann 3 MM 5 mm paper disks were soaked with antibiotic solutions and allowed to dry. The disks were positioned evenly on the surface of bacterial-inoculated solid agar and the plates were incubated at 37° C. for 1-2 days. MIC and bactericide index measurements."}}, "note": "“Also recorded” adds a separate entry of the source."}
{"smiles": "NCC1OC(OC2C(N)CC(N)C(O)C2O)C(N)C(O)C1O", "note": "[D-Neamine]", "values": [{"measurement": "IC50", "setting": "[1]", "result": 38, "unit": "µM"}, {"measurement": "Minimal inhibitory concentration (MIC), E. coli", "setting": "E. coli (ATCC 25922) [2]", "result": 150, "unit": "µM"}, {"measurement": "Concentration at which bactericidal effect begins", "setting": "E. coli (ATCC 25922) [3]", "result": 75, "unit": "µM"}, {"measurement": "Minimal inhibitory concentration (MIC), P. aeruginosa", "setting": "[4]", "result": 500, "unit": "µM"}, {"measurement": "Minimal inhibitory concentration (MIC), E. coli kan/neo resistant", "setting": "[5]", "result": ">6400", "unit": "µM"}, {"measurement": "Kd", "setting": "70S ribosome", "result": "5.45 ± 0.68", "unit": "µM"}, {"measurement": "Kd", "setting": "80S ribosome", "result": "1.14 ± 0.25", "unit": "µM"}, {"measurement": "Antibiotic activity in disk assay, kanamycin/neomycin resistant E. coli", "setting": "[6]", "result": "selective resistance towards D-neamine; also recorded: essentially abolished"}]}
